Experiment: xn = mol fraction of the nth substance listed
Conditions: Liquid, Bellows volumetry

CC(C)C [2-methylpropane] + CCC
mass density [kg/m3]
Conditions	280 K	300 K	320 K	340 K	360 K	380 K	400 K	420 K	440 K
1000 kPa, x2 = 0.2765	562.64	–	508.11	–	–	–	–	–	–
1000 kPa, x2 = 0.5052	551.34	524.22	–	–	–	–	–	–	–
1000 kPa, x2 = 0.7468	537.6	–	–	–	–	–	–	–	–
2000 kPa, x2 = 0.2765	564.6	–	511.38	–	–	–	–	–	–
2000 kPa, x2 = 0.5052	553.2	526.6	497.06	461.7	–	–	–	–	–
2000 kPa, x2 = 0.7468	539.46	–	479.56	–	–	–	–	–	–
3000 kPa, x2 = 0.2765	566.3	–	514.42	–	445.63	–	–	–	–
3000 kPa, x2 = 0.5052	555.01	529.08	500.46	467.03	423.27	–	–	–	–
3000 kPa, x2 = 0.7468	541.38	–	483.56	–	–	–	–	–	–
5000 kPa, x2 = 0.2765	569.29	–	520.11	–	458.57	–	353.34	–	–
5000 kPa, x2 = 0.5052	558.39	533.59	506.63	476.37	439.84	390.11	–	–	–
5000 kPa, x2 = 0.7468	545.05	–	490.55	–	415.25	–	–	–	–
10000 kPa, x2 = 0.2765	576.64	–	531.88	–	480.82	–	418.11	–	–
10000 kPa, x2 = 0.5052	565.97	543.3	519.45	493.82	465.78	433.73	396.98	353.95	–
10000 kPa, x2 = 0.7468	553.18	–	504.71	–	447.04	–	370.08	–	–
20000 kPa, x2 = 0.2765	589.39	–	550.35	–	509.06	–	464.84	–	418.57
20000 kPa, x2 = 0.5052	579.24	559.15	538.88	518.13	496.7	473.66	450.18	426.22	401.72
20000 kPa, x2 = 0.7468	566.92	–	525.65	–	481.36	–	432.58	–	381.56
30000 kPa, x2 = 0.2765	600.09	–	564.57	–	528.67	–	491.48	–	455.11
30000 kPa, x2 = 0.5052	590.28	572.02	553.95	535.68	517.29	498.04	478.86	459.76	441.26
30000 kPa, x2 = 0.7468	578.25	–	541.33	–	503.41	–	463.78	–	424.79
40000 kPa, x2 = 0.2765	609.41	–	576.53	–	543.99	–	510.96	–	479.61
40000 kPa, x2 = 0.5052	599.56	582.88	566.43	549.83	533.27	516.11	499.19	482.81	467.04
40000 kPa, x2 = 0.7468	588.02	–	553.96	–	520.23	–	485.32	–	452.26
50000 kPa, x2 = 0.2765	617.7	–	586.9	–	556.8	–	526.54	–	498.3
50000 kPa, x2 = 0.5052	608.07	592.36	576.96	561.5	546.45	530.72	515.41	500.59	486.62
50000 kPa, x2 = 0.7468	596.76	–	564.8	–	534.15	–	502.4	–	472.75
60000 kPa, x2 = 0.2765	625.03	–	595.84	–	567.78	–	539.61	–	513.76
60000 kPa, x2 = 0.5052	615.65	600.74	586.25	571.92	557.79	543.03	528.8	515.22	502.39
60000 kPa, x2 = 0.7468	604.59	–	574.56	–	545.73	–	516.38	–	489.17
70000 kPa, x2 = 0.2765	632.03	–	604.2	–	577.53	–	550.88	–	526.7
70000 kPa, x2 = 0.5052	622.58	608.66	594.64	581.17	567.64	553.8	540.38	527.71	515.83
70000 kPa, x2 = 0.7468	611.65	–	583.04	–	555.96	–	528.32	–	503.08
80000 kPa, x2 = 0.2765	638.32	–	611.65	–	586.26	–	560.85	–	538.18
80000 kPa, x2 = 0.5052	629.12	615.58	602.37	589.45	576.76	563.25	550.76	538.65	527.49
80000 kPa, x2 = 0.7468	618.29	–	590.88	–	565.01	–	538.83	–	515.14
90000 kPa, x2 = 0.2765	644.2	–	618.46	–	594.28	–	570.04	–	548.29
90000 kPa, x2 = 0.5052	635.05	622.2	609.27	597.11	584.67	572.07	559.81	548.42	537.76
90000 kPa, x2 = 0.7468	624.34	–	598.03	–	573.12	–	548.28	–	525.87
100000 kPa, x2 = 0.2765	649.78	–	625.01	–	601.6	–	578.09	–	557.44
100000 kPa, x2 = 0.5052	640.63	628.29	615.79	603.84	592.18	579.89	568.28	557.24	547.21
100000 kPa, x2 = 0.7468	629.98	–	604.67	–	580.81	–	557.19	–	535.38
120000 kPa, x2 = 0.2765	659.95	–	636.48	–	614.72	–	592.86	–	573.52
120000 kPa, x2 = 0.5052	650.88	639.23	627.71	616.54	605.4	593.88	583.05	572.89	563.63
120000 kPa, x2 = 0.7468	640.58	–	616.69	–	594.3	–	571.88	–	552.06
140000 kPa, x2 = 0.2765	669.13	–	647	–	626.08	–	605.66	–	587.48
140000 kPa, x2 = 0.5052	660.2	649.29	638.12	627.45	617.13	606.29	595.97	586.39	577.64
140000 kPa, x2 = 0.7468	649.88	–	627.42	–	606.32	–	584.98	–	566.38
160000 kPa, x2 = 0.2765	677.73	–	656.27	–	636.59	–	616.77	–	599.81
160000 kPa, x2 = 0.5052	668.68	658.13	647.73	637.64	627.68	617.17	607.43	598.41	590.03
160000 kPa, x2 = 0.7468	658.46	–	636.99	–	616.85	–	596.72	–	579.07
180000 kPa, x2 = 0.2765	685.38	–	665.05	–	645.76	–	626.93	–	610.74
180000 kPa, x2 = 0.5052	676.44	666.5	656.41	646.63	637.18	627.17	617.7	609.2	601.17
180000 kPa, x2 = 0.7468	666.22	–	645.7	–	626.62	–	606.99	–	590.35
200000 kPa, x2 = 0.2765	692.5	–	673	–	654.56	–	636.12	–	620.79
200000 kPa, x2 = 0.5052	683.68	674.16	664.56	655.11	645.89	636.19	627.01	619.16	611.27
200000 kPa, x2 = 0.7468	673.88	–	653.87	–	635.27	–	616.65	–	600.48
